In patent US20150182629A1, “STABLE COMPOSITIONS OF FESOTERODINE” (HETERO RESEARCH FOUNDATION, priority 2012, published 2015):

Test: Stability evaluation of drug-excipient blend (impurities initially and after storage)
Type: physicochemical
Procedure: According to the present invention stability of drug-excipient blend was evaluated based on percentage w/w of 2-((R)-3-(diisopropylamino)-1-phenylpropyl)-4-(hydroxymethyl)phenol impurity (H-FTFRC-01) and total impurities present in drug-excipient blend, initially and after storage for one month at 40° C. and 75% relative humidity.

H-FTFRC-01 impurity (40° C./75% RH, 1 month): 0.524 % w/w | Total Impurities (40° C./75% RH, 1 month): 1.245 % w/w | H-FTFRC-01 impurity (Initial): 0.284 % w/w | Total Impurities (Initial): 0.800 % w/w
Structure (SMILES): CC(C)C(=O)Oc1ccc(CO)cc1[C@H](CCN(C(C)C)C(C)C)c1ccccc1.O=C(O)/C=C/C(=O)O [Fesoterodine fumarate, isobutyric acid 2-((R)-3-diisopropylammonium-1phenylpropyl)-4-(hydroxymethyl) phenyl ester hydrogen fumarate]
